Patent US20050112573A1, “Method of detecting toxic substance” (priority 2001, published 2005)

Tested on: yeast genes (level of expressed mRNA)
Assay: DNA chip analysis of expressed mRNA of yeast genes after 2 h culture with a toxic chemical substance
Type: cell-based, Saccharomyces cerevisiae S288C
Procedure, shortened: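 S. cerevisiae S288C in YPD at 25 °C was exposed at log phase for 2 h to a growth-inhibiting, non-lethal concentration of the chemical. Poly(A) mRNA was reverse-transcribed with Cy3- or Cy5-dUTP and hybridized to a whole-genome yeast DNA chip (65 °C, >12 h). Values are fluorescence ratios versus untreated cells.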

manganese ethylenebis(dithiocarbamate) [(8)]
The level of expressed mRNA in the presence of chemical substance/ (yeast gene YKL086W, ratio to control without chemical): 1.1
The level of expressed mRNA in the presence of chemical substance/The level of expressed mRNA in the absence of chemical substance (yeast gene YKL096W): 0.5
The level of expressed mRNA in the presence of chemical substance/ (yeast gene YKL151C, ratio to control without chemical substance, 2 h culture): 1.0
The level of expressed mRNA in the presence of chemical substance/ (yeast gene YKL153W, ratio to control without chemical substance, 2 h culture): 0.7
The level of expressed mRNA in the presence of chemical substance/The level of expressed mRNA in the absence of chemical substance (yeast gene YKL165C): 1.5
The level of expressed mRNA in the presence of chemical substance/The level of expressed mRNA in the absence of chemical substance (yeast gene YKL193C): 1.4
The level of expressed mRNA in the presence of chemical substance/ (yeast gene YKL195W, ratio to control without chemical substance, 2 h culture): 1.2
The level of expressed mRNA in the presence of chemical substance/in the absence of chemical substance (yeast gene YKR009C): 0.9
The level of expressed mRNA in the presence of chemical substance/ (yeast gene YKR091W, ratio to control without chemical): 1.3
The level of expressed mRNA in the presence of chemical substance/ (yeast gene YLR054C, ratio to control without chemical substance, 2 h culture): 1.1
The level of expressed mRNA in the presence of chemical substance/The level of expressed mRNA in the absence of chemical substance (yeast gene YLR120C): 0.9
The level of expressed mRNA in the presence of chemical substance/The level of expressed mRNA in the absence of chemical substance (yeast gene YLR136C): 1.1
The level of expressed mRNA in the presence of chemical substance/ (yeast gene YLR149C, ratio to control without chemical substance, 2 h culture): 1.1
The level of expressed mRNA in the presence of chemical substance/ (yeast gene YLR152C, ratio to control without chemical substance, 2 h culture): 1.2
The level of expressed mRNA in the presence of chemical substance/The level of expressed mRNA in the absence of chemical substance (yeast gene YLR178C): 0.9
The level of expressed mRNA in the presence of chemical substance/ (yeast gene YLR194C, ratio to control without chemical): 1.0
The level of expressed mRNA in the presence of chemical substance/The level of expressed mRNA in the absence of chemical substance (yeast gene YLR250W): 1.3
The level of expressed mRNA in the presence of chemical substance/ (yeast gene YLR324W, ratio to control without chemical substance, 2 h culture): 1.0
The level of expressed mRNA in the presence of chemical substance/The level of expressed mRNA in the absence of chemical substance (yeast gene YLR327C): 2.2
The level of expressed mRNA in the presence of chemical substance/ (yeast gene YLR350W, ratio to control without chemical substance, 2 h culture): 1.0
The level of expressed mRNA in the presence of chemical substance/in the absence of chemical substance (yeast gene YLR351C): 1.2
The level of expressed mRNA in the presence of chemical substance/The level of expressed mRNA in the absence of chemical substance (yeast gene YLR356W): 0.7
The level of expressed mRNA in the presence of chemical substance/The level of expressed mRNA in the absence of chemical substance (yeast gene YLR362W): 1.4
The level of expressed mRNA in the presence of chemical substance/in the absence of chemical substance (yeast gene YLR375W): 1.0
The level of expressed mRNA in the presence of chemical substance/ (yeast gene YLR387C, ratio to control without chemical substance, 2 h culture): 1.4
The level of expressed mRNA in the presence of chemical substance/The level of expressed mRNA in the absence of chemical substance (yeast gene YLR391W): 0.7
The level of expressed mRNA in the presence of chemical substance/The level of expressed mRNA in the absence of chemical substance (yeast gene YLR429W): 1.0
The level of expressed mRNA in the presence of chemical substance/ (yeast gene YLR460C, ratio to control without chemical substance, 2 h culture): 8.1
The level of expressed mRNA in the presence of chemical substance/ (yeast gene YML117W, ratio to control without chemical substance, 2 h culture): 0.7
The level of expressed mRNA in the presence of chemical substance/The level of expressed mRNA in the absence of chemical substance (yeast gene YMR004W): 1.0
The level of expressed mRNA in the presence of chemical substance/ (yeast gene YMR009W, ratio to control without chemical substance, 2 h culture): 1.4
The level of expressed mRNA in the presence of chemical substance/ (yeast gene YMR067C, ratio to control without chemical substance, 2 h culture): 1.1
The level of expressed mRNA in the presence of chemical substance/ (yeast gene YMR090W, ratio to control without chemical substance, 2 h culture): 3.9
The level of expressed mRNA in the presence of chemical substance/The level of expressed mRNA in the absence of chemical substance (yeast gene YMR094W): 1.0
The level of expressed mRNA in the presence of chemical substance/ (yeast gene YMR095C, ratio to control without chemical): 1.2
The level of expressed mRNA in the presence of chemical substance/ (yeast gene YMR097C, ratio to control without chemical substance, 2 h culture): 1.5
The level of expressed mRNA in the presence of chemical substance/ (yeast gene YMR102C, ratio to control without chemical substance, 2 h culture): 1.0
The level of expressed mRNA in the presence of chemical substance/The level of expressed mRNA in the absence of chemical substance (yeast gene YMR104C): 0.9
The level of expressed mRNA in the presence of chemical substance/ (yeast gene YMR107W, ratio to control without chemical substance, 2 h culture): 1.3
The level of expressed mRNA in the presence of chemical substance/ (yeast gene YMR180C, ratio to control without chemical substance, 2 h culture): 1.8
The level of expressed mRNA in the presence of chemical substance/ (yeast gene YMR184W, ratio to control without chemical substance, 2 h culture): 1.9
The level of expressed mRNA in the presence of chemical substance/ (yeast gene YMR191W, ratio to control without chemical substance, 2 h culture): 1.1
The level of expressed mRNA in the presence of chemical substance/The level of expressed mRNA in the absence of chemical substance (yeast gene YMR219W): 1.1
The level of expressed mRNA in the presence of chemical substance/The level of expressed mRNA in the absence of chemical substance (yeast gene YMR226C): 1.6
The level of expressed mRNA in the presence of chemical substance/in the absence of chemical substance (yeast gene YMR267W): 1.5
The level of expressed mRNA in the presence of chemical substance/The level of expressed mRNA in the absence of chemical substance (yeast gene YMR275C): 0.8
The level of expressed mRNA in the presence of chemical substance/The level of expressed mRNA in the absence of chemical substance (yeast gene YMR276W): 0.8
The level of expressed mRNA in the presence of chemical substance/in the absence of chemical substance (yeast gene YMR278W): 1.1
The level of expressed mRNA in the presence of chemical substance/in the absence of chemical substance (yeast gene YMR293C): 1.0
The level of expressed mRNA in the presence of chemical substance/ (yeast gene YMR295C, ratio to control without chemical substance, 2 h culture): 1.0
The level of expressed mRNA in the presence of chemical substance/The level of expressed mRNA in the absence of chemical substance (yeast gene YMR314W): 1.2
The level of expressed mRNA in the presence of chemical substance/ (yeast gene YMR316W, ratio to control without chemical substance, 2 h culture): 1.6
The level of expressed mRNA in the presence of chemical substance/The level of expressed mRNA in the absence of chemical substance (yeast gene YNL006W): 1.1
The level of expressed mRNA in the presence of chemical substance/The level of expressed mRNA in the absence of chemical substance (yeast gene YNL007C): 0.8
The level of expressed mRNA in the presence of chemical substance/ (yeast gene YNL044W, ratio to control without chemical substance, 2 h culture): 1.8
